According to patent US20250333682A1, “DYNAMIC HYDROGEL AND PULMONARY FIBROSIS BIONIC CHIP” (Anivance AI Corporation, priority 2024, published 2025):

System: HFL-1 cells
Test: antifibrotic drug efficacy model on lung fibrosis bionic chip, immunofluorescence staining
Type: cell-based, human
Conditions: TGF-β-induced HFL-1 on dynamic hydrogel with laser dynamic response
Method: Using the dynamic hydrogel obtained from different crosslinking times as the cell culture substrate for fibrosis models (human fetal lung fibroblasts, HFL-1), the expression of α-SMA protein is used as an indicator of myofibroblast differentiation. After culturing the HFL-1 cells for one day, 10 ng/ml of TGF-β is added to stimulate the cells as a control group for α-SMA expression. After two days of culture, a laser device is used to irradiate the cells for 24 hours at frequencies of 0.2 Hz (On-1.5 s/Off-3.5 s) and 0.3 Hz ([…]), respectively. The cells are then fixed and stained for observation. In FIG. 11, “10 min” and “25 min” indicate the fluorescence images of the dynamic hydrogel 5 obtained by UV irradiation for 10 minutes and 25 minutes, respectively.
Furthermore, since ECM remodeling in lung fibrosis patients leads to tissue stiffness, and stiff substrates apply mechanical stress to cells, the activity of YAP occurs through nuclear translocation, with YAP cellular localization depending on mechanical stress. Therefore, HFL-1 cells are cultured in dynamic hydrogels of different hardness (simulating substrates of varying stiffness) and dynamic response environments with laser frequencies to evaluate the effects of substrate hardness and dynamic response on the localization of YAP in lung fibroblasts. […]

## Cc1ccc(=O)n(-c2ccccc2)c1 [pirfenidone]
Pirfenidone 5.3 mM, two days drug, FIG. 13(a)
  expression of the fibrotic marker α-SMA: inhibited
pirfenidone, FIG. 13(b)
  inhibiting the mechanical response marker YAP: less significant effect
